Source: ChEMBL document CHEMBL3046802, “7-Piperazinylquinolones with methylene-bridged nitrofuran scaffold as new antibacterial agents” (2013)
Values after ≈ are worked out from the molar mass of the structure shown.

What was measured:
Type in all cases: functional
[1] = system: Escherichia coli; experiment: Antibacterial activity against Escherichia coli ATCC 8739 after 18 hrs by agar dilution method; conditions: ATCC 8739, 18 h
[2] = system: Staphylococcus aureus; experiment: Antibacterial activity against Staphylococcus aureus ATCC 6538 after 18 hrs by agar dilution method; conditions: ATCC 6538, 18 h
[3] = system: Staphylococcus epidermidis; experiment: Antibacterial activity against Staphylococcus epidermidis ATCC 12228 after 18 hrs by agar dilution method; conditions: ATCC 12228, 18 h
[4] = system: Pseudomonas aeruginosa; experiment: Antibacterial activity against Pseudomonas aeruginosa ATCC 9027 after 18 hrs by agar dilution method; conditions: ATCC 9027, 18 h
[5] = system: Bacillus subtilis; experiment: Antibacterial activity against Bacillus subtilis ATCC 6633 after 18 hrs by agar dilution method; conditions: ATCC 6633, 18 h
[6] = system: Klebsiella pneumoniae; experiment: Antibacterial activity against Klebsiella pneumoniae ATCC 10031 after 18 hrs by agar dilution method; conditions: ATCC 10031, 18 h

Row | SMILES | MIC [1] | MIC [2] | MIC [3] | MIC [4] | MIC [5] | MIC [6]
1 | C[C@H]1COc2c(N3CCNCC3)c(F)cc3c(=O)c(C(=O)O)cn1c23 [N-DESMETHYL LEVOFLOXACIN] | – | 3.13 µg/mL (≈ 9.01 µM) | 1.56 µg/mL (≈ 4.49 µM) | > 6.25 µg/mL | 1.56 µg/mL (≈ 4.49 µM) | 0.39 µg/mL (≈ 1.12 µM)
2 | CCn1cc(C(=O)O)c(=O)c2cc(F)c(N3CCNCC3)cc21 [NORFLOXACIN] | 0.195 µg/mL (≈ 0.611 µM) | 0.39 µg/mL (≈ 1.22 µM) | 0.39 µg/mL (≈ 1.22 µM) | 1.56 µg/mL (≈ 4.89 µM) | 0.195 µg/mL (≈ 0.611 µM) | 0.39 µg/mL (≈ 1.22 µM)
3 | COc1c(N2CCN(Cc3ccc([N+](=O)[O-])o3)C(C)C2)c(F)cc2c(=O)c(C(=O)O)cn(C3CC3)c12 (stereo unspecified) | 3.13 µg/mL (≈ 6.25 µM) | 0.78 µg/mL (≈ 1.56 µM) | 1.56 µg/mL (≈ 3.12 µM) | 6.25 µg/mL (≈ 12.5 µM) | 3.13 µg/mL (≈ 6.25 µM) | 1.56 µg/mL (≈ 3.12 µM)
4 | O=C(O)c1cn(C2CC2)c2cc(N3CCNCC3)c(F)cc2c1=O [CIPROFLOXACIN] | 0.097 µg/mL (≈ 0.293 µM) | 0.195 µg/mL (≈ 0.589 µM) | 0.195 µg/mL (≈ 0.589 µM) | 0.39 µg/mL (≈ 1.18 µM) | 0.195 µg/mL (≈ 0.589 µM) | 0.049 µg/mL (≈ 0.148 µM)
5 | C[C@H]1COc2c(N3CCN(Cc4ccc([N+](=O)[O-])o4)CC3)c(F)cc3c(=O)c(C(=O)O)cn1c23 | 0.78 µg/mL (≈ 1.65 µM) | 1.56 µg/mL (≈ 3.3 µM) | 0.39 µg/mL (≈ 0.826 µM) | 12.5 µg/mL (≈ 26.5 µM) | 0.78 µg/mL (≈ 1.65 µM) | 1.56 µg/mL (≈ 3.3 µM)
6 | C[C@H]1COc2c(N3CCN(C)CC3)c(F)cc3c(=O)c(C(=O)O)cn1c23.C[C@H]1COc2c(N3CCN(C)CC3)c(F)cc3c(=O)c(C(=O)O)cn1c23.O [LEVOFLOXACIN] | – | 0.39 µg/mL | 0.39 µg/mL | 3.13 µg/mL | 0.78 µg/mL | 0.39 µg/mL
7 | O=C(O)c1cn(C2CC2)c2cc(N3CCN(Cc4ccc([N+](=O)[O-])cc4)CC3)c(F)cc2c1=O | 3.13 µg/mL (≈ 6.71 µM) | 3.13 µg/mL (≈ 6.71 µM) | 3.13 µg/mL (≈ 6.71 µM) | 50 µg/mL (≈ 107 µM) | 3.13 µg/mL (≈ 6.71 µM) | 12.5 µg/mL (≈ 26.8 µM)
8 | O=C(O)c1cn(C2CC2)c2cc(N3CCN(Cc4ccc([N+](=O)[O-])o4)CC3)c(F)cc2c1=O | 1.56 µg/mL (≈ 3.42 µM) | 0.39 µg/mL (≈ 0.854 µM) | 1.56 µg/mL (≈ 3.42 µM) | 3.13 µg/mL (≈ 6.86 µM) | 0.78 µg/mL (≈ 1.71 µM) | 0.39 µg/mL (≈ 0.854 µM)

Results, then the molecule that gave them:

Row | MIC [1] | MIC [2] | MIC [3] | MIC [4] | MIC [5] | MIC [6] | SMILES
9 | 6.25 µg/mL (≈ 14.1 µM) | 1.56 µg/mL (≈ 3.51 µM) | 3.13 µg/mL (≈ 7.04 µM) | 25 µg/mL (≈ 56.3 µM) | 12.5 µg/mL (≈ 28.1 µM) | 6.25 µg/mL (≈ 14.1 µM) | CCn1cc(C(=O)O)c(=O)c2cc(F)c(N3CCN(Cc4ccc([N+](=O)[O-])o4)CC3)cc21
10 | 6.25 µg/mL (≈ 14 µM) | 0.39 µg/mL (≈ 0.876 µM) | 3.13 µg/mL (≈ 7.03 µM) | 12.5 µg/mL (≈ 28.1 µM) | 6.25 µg/mL (≈ 14 µM) | 3.13 µg/mL (≈ 7.03 µM) | CCn1cc(C(=O)O)c(=O)c2cc(F)c(N3CCN(Cc4ccc([N+](=O)[O-])o4)CC3)nc21
11 | 0.39 µg/mL (≈ 1.22 µM) | 0.39 µg/mL (≈ 1.22 µM) | 0.78 µg/mL (≈ 2.44 µM) | 1.56 µg/mL (≈ 4.87 µM) | 0.195 µg/mL (≈ 0.609 µM) | 0.78 µg/mL (≈ 2.44 µM) | CCn1cc(C(=O)O)c(=O)c2cc(F)c(N3CCNCC3)nc21 [ENOXACIN]
12 | 0.39 µg/mL (≈ 0.819 µM) | 1.56 µg/mL (≈ 3.27 µM) | 3.13 µg/mL (≈ 6.57 µM) | 25 µg/mL (≈ 52.5 µM) | 0.097 µg/mL (≈ 0.204 µM) | 6.25 µg/mL (≈ 13.1 µM) | CCn1cc(C(=O)O)c(=O)c2cc(F)c(N3CCN(Cc4ccc([N+](=O)[O-])o4)C(C)C3)c(F)c21 (racemic)
13 | 1.56 µg/mL (≈ 4.16 µM) | 0.78 µg/mL (≈ 2.08 µM) | 0.78 µg/mL (≈ 2.08 µM) | 0.78 µg/mL (≈ 2.08 µM) | 0.78 µg/mL (≈ 2.08 µM) | 0.195 µg/mL (≈ 0.519 µM) | COc1c(N2CCNC(C)C2)c(F)cc2c(=O)c(C(=O)O)cn(C3CC3)c12 (stereo unspecified) [GATIFLOXACIN]
